# According to patent publication US20260216142A1, “USES OF ZLN-005 AND RELATED COMPOUNDS” (priority 2022, published 2026):
# What was measured:
# [1] = tested on: THP-1 cells; assay: Autophagy flux (LC3 conversion, Western blotting) in LPS model of THP-1; assay type: cell-based, human; settings: 6 hours LPS followed by 2 or 6 hours autophagy inhibitor (50 nM bafilomycin A1 or 30 nM chloroquine)
# Experimental: Cells were incubated at 37° C. in a humidified 5% CO2 incubator. […] After 48 hours, the supernatant of the medium was carefully removed to avoid detaching the cells attached to the bottom of the plate and replaced with new medium containing 1 μM ZLN-005 or DMSO (0.1%) as a control. […] For PI3K inhibition, the cells were seeded in the plate and added 200 nM Wortmannin (AG-CN2-0023-M001, Adipogen Life Sciences Inc.).
# Protein levels were quantified using ImageJ™.
# [2] = tested on: CLP sepsis model; assay: Echocardiographic measurement at 24 hours post-CLP; assay type: in vivo, mice; settings: 24 hours after CLP
# Experimental: Chest hair was removed with cream one day before echocardiography was performed using VisualSonics Vevo®@2100 equipped with an 18- to 38-MHz probe (VisualSonics, Toronto, ON, Canada). Mice were anesthetized by inhalation of isoflurane at 24 hours post-CLP. The left ventricle was assessed in the parasternal short-axis view. Left ventricular end-systole or end-diastole was defined as the period when the left ventricular lumen was shortest or most dilated, respectively. Diastolic left ventricular (LV) internal diameters, systolic LV internal diameters, diastolic LV anterior wall, and diastolic LV posterior wall were measured from the LV M-mode tracing at the papillary muscle level. LV wall thickness was calculated as the average of anterior and posterior wall thicknesses.
# [3] = tested on: naïve THP-1; assay: Expression over time in naïve THP-1; assay type: cell-based, human
# [4] = tested on: cecal ligation and perforation (CLP) model; assay: CLP model of sepsis: survival and behavior; assay type: in vivo, C57BL/6 mice; settings: 12 mg/kg i.p. daily Day 0 to Day 2
# Experimental: Cecal ligation and perforation was performed on C57BL/6 mice about 10 to 20 weeks of age. Mice were administered either ZLN-005 at 12 mg/kg (i.p.) or vehicle (DMSO) at the time of cecal ligation and perforation, 24 hours later, and 48 hours later (FIG. 1A).
# C57BL/6 mice were purchased from Shimizu Laboratory Supplies Co., Ltd. (Kyoto, Japan). Mice were housed in specific-pathogen-free conditions with free access to food and water. Mice were anesthetized by inhalation of isoflurane (099-06571, FUJIFILM Wako Pure Chemical Corporation, Tokyo, Japan). A midline incision was made, followed by externalization, and the cecum was then ligated at half the distance between the distal pole and the base of the cecum and punctured with a 21-gauge needle (NN-2116R, Terumo Corporation, Tokyo, Japan). Next, a small amount of fecal mass from the punctured cecum was gently squeezed out to ensure patency of punctures, the cecum was relocated, and 6/0 Ethicon PROLENE Suture (Ethicon, Inc., Raritan, NJ, USA) was used to close the peritoneum and skin. Sham-operated mice underwent only incision and cecum exteriorization. […]
# The results are presented as the means±standard deviations. The statistical significance of differences among groups was evaluated using parametric unpaired t tests for bar graphs. […]
SMILES,LC3-II and LC3-II/I ratios [1],ejection fraction [2] [%],"increase in expression at the protein level ([3]; naïve THP-1, 36 hours (data not shown)) [fold]","increase in expression at the mRNA level ([3]; naïve THP-1, 48 hours (data not shown)) [fold]",mice alive at 72 hours ([4]; 72 hours post-CLP) [%],mice alive after 6 days ([4]; 6 days post-CLP) [%]
CO/C1=C\C(C)=C\[C@@H](C)[C@@H](O)[C@@H](C)C/C(C)=C/C=C/[C@H](OC)[C@@H]([C@@H](C)[C@@H](O)[C@H](C)[C@@]2(O)C[C@@H](O)[C@H](C)[C@@H](C(C)C)O2)OC1=O [bafilomycin A1],increasing with significant differences,–,–,–,–,–
"CC(C)(C)c1ccc(-c2nc3ccccc3[nH]2)cc1 [ZLN-005, 2-(4-tert-butylphenyl)-1H-benzimidazole]",–,~50,2,2,40,30
